These are literature values, as cited in patent US10299493B2, “Dietary supplement compositions with enhanced delivery matrix, gummies, chocolates, atomizers and powders containing same, and methods of making same” (priority 2013, dated 2019).

The conditions of the series: temperature of 20° C.

Consider `C/C=C/C=C/C(=O)[O-].[K+]` [Potassium sorbate], for which the solubility in water was 58.2%.
